What was measured:
Assay type in all cases: biochemical
[1] = biological target: T1, Arabidopsis HPPD variant M335H, P336A, E363Q (Arabidopsis thaliana, UniProt P93836, E363Q/M335H/P336A); experiment: HPPD activity assay, Arabidopsis HPPD mutant M335H, P336A, E363Q; conditions: normalized on wildtype
T1 construct: His6 (N); made in house; host or cells: E. coli BL21 (DE3)
Protocol: (§1) HPPD produces homogentisic acid and CO2 from 4-hydroxyphenylpyruvate (4-HPP) and O2. The activity assay for HPPD is based on the analysis of homogentisic acid by reversed phase HPLC.
(§2) The assay mixture can contain 150 mM potassium phosphate buffer pH 7.0, 50 mM L-ascorbic acid, 1 μM FeSO4 and 7 μg of purified enzyme in a total volume of 1 ml. Inhibitors are dissolved in DMSO (dimethylsulfoxide) to a concentration of 20 mM or 0.5 mM, respectively. From this stock solution serial five-fold dilutions are prepared in DMSO, which are used in the assay. The respective inhibitor solution accounts for 1% of the assay volume. Thus, final inhibitor concentrations range from 200 μM to 2.5 nM or from 5 μM to 63 pM, respectively. After a preincubation of 30 min the reaction is started by adding 4-HPP to a final concentration of 0.1 mM. […]
(§3) Inhibitors are dissolved in DMSO (dimethylsulfoxide) to a concentration of 0.5 mM. […] IC50 values are calculated using non-linear regression.
(§4) Purified, mutant HPPD enzymes are obtained by the methods described above. […] Apparent michaelis constants (Km) and maximal reaction velocities (Vmax) are calculated by non-linear regression with the software GraphPad Prism 5 (GraphPad Software, La Jolla, USA) using a substrate inhibition model. […] Weighted means (by standard error) of Km and […] values are calculated from at least three independent experiments. […]

[2] = biological target: T2, Hordeum HPPD (SEQ ID: 1/2) (Hordeum vulgare, UniProt O48604, A164G/R146V/R147D/R148G); experiment: HPPD activity assay, wildtype Hordeum HPPD; conditions: for Ki: Cheng-Prusoff from IC50, read-out: Ki (dissociation constant); for TI (tolerance index): not normalized
T2 construct: His6; made in house; host or cells: E. coli BL21 (DE3)
T2 sequence (O48604 whole entry R146V/R147D/R148G/A164G): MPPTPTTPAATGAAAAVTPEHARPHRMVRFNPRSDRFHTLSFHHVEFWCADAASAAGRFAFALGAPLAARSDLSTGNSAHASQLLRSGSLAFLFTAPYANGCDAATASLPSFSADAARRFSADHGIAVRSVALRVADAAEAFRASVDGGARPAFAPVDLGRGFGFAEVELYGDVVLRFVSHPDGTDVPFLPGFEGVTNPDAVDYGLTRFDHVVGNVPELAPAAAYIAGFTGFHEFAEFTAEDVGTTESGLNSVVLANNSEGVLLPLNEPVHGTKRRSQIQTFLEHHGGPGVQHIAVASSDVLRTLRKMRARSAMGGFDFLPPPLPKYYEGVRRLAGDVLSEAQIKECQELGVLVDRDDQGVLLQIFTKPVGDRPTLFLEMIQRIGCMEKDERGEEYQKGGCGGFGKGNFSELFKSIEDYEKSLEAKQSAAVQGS
Protocol: as §1
(§5) The assay mixture can contain 150 mM potassium phosphate buffer pH 7.0, 50 mM L-ascorbic acid, 1 μM FeSO4 and 7 μg of purified enzyme in a total volume of 1 ml. Inhibitors are dissolved in DMSO (dimethylsulfoxide) to a concentration of 20 mM or 0.5 mM, respectively. From this stock solution serial five-fold dilutions are prepared in DMSO, which are used in the assay. The respective inhibitor solution accounts for 1% of the assay volume. Thus, final inhibitor concentrations range from 200 μM to 2.5 nM or from 5 μM to 63 pM, respectively. After a preincubation of 30 min the reaction is started by adding 4-HPP to a final concentration of 0.1 mM. The reaction is allowed to proceed for 120 min at room temperature. The reaction is stopped by addition of 100 μl of 4.5 M phosphoric acid.
(§6) Activities are normalized by setting the uninhibited enzyme activity to 100%. […] values are calculated using non-linear regression.
(§7) The assay mixture can contain 150 mM potassium phosphate buffer pH 7.0, 50 mM L-ascorbic acid, 100 μM Catalase (Sigma-Aldrich), 1 μM FeSO4 and 0.2 units of purified HPPD enzyme in a total volume of 505 μl. 1 unit is defined as the amount of enzyme that is required to produce 1 nmol of HGA per minute at 20° C.
(§8) Inhibitors are dissolved in DMSO (dimethylsulfoxide) to a concentration of 0.5 mM. From this stock solution serial five-fold dilutions are prepared in DMSO, which are used in the assay. The respective inhibitor solution accounts for 1% of the assay volume. Thus, final inhibitor concentrations range from 5 μM to 320 pM, respectively. Activities are normalized by setting the uninhibited enzyme activity to 100%. IC50 values are calculated using non-linear regression.
(§9) Using methods which are described in the above examples or well known in the art, purified, recombinant wildtype HPPD enzymes are characterized with respect to their kinetic properties and sensitivity towards HPPD inhibiting herbicides. Apparent michaelis constants (Km) and maximal reaction velocities (Vmax) are calculated by non-linear regression with the software GraphPad Prism 5 (GraphPad Software, La Jolla, USA) using a substrate inhibition model. Apparent kcat values are calculated from Vmax assuming 100% purity of the enzyme preparation. Weighted means (by standard error) of Km and […] values are calculated from at least three independent experiments. The Cheng-Prusoff equation for competitive inhibition (Cheng, Y. C.; Prusoff, W. H. Biochem Pharmacol 1973, 22, 3099-3108) is used to calculate dissociation constants (Ki).
(§10) Field performance of the HPPD enzyme, which is used as a herbicide tolerance trait may depend not only on its lack of sensitivity towards HPPD inhibiting herbicides but also on its activity. To assess the potential performance of a herbicide tolerance trait a tolerance index (TI) is calculated using the following formula: […]
(§11) Easy comparison and ranking of each trait is enabled by normalizing every tolerance index on Hordeum HPPD.

[3] = biological target: T3, Hordeum HPPD variant L353M, P321R, L320N (Hordeum vulgare, UniProt O48604, L320N/L353M/P321R); experiment: HPPD activity assay, Hordeum HPPD mutant L353M, P321R, L320N; conditions: normalized on wildtype
T3 construct: His6; made in house; host or cells: E. coli BL21 (DE3)
T3 sequence (O48604 whole entry R146V/R147D/R148G/A164G/L320N/P321R/L353M): as the sequence (O48604 whole entry R146V/R147D/R148G/A164G) above, with L320N, P321R, L353M counted along it
Protocol: as §1, §2, §3, §4

[4] = biological target: T4, Hordeum HPPD variant L353M, P321R, V212I, L334E (Hordeum vulgare, UniProt O48604, L334E/L353M/P321R/V212I); experiment: HPPD activity assay, Hordeum HPPD mutant L353M, P321R, V212I, L334E; conditions: normalized on wildtype
T4 construct: His6; made in house; host or cells: E. coli BL21 (DE3)
T4 sequence (O48604 whole entry R146V/R147D/R148G/A164G/V212I/P321R/L334E/L353M): as the sequence (O48604 whole entry R146V/R147D/R148G/A164G) above, with V212I, P321R, L334E, L353M counted along it
Protocol: as §1, §2, §3, §4

[5] = biological target: T5, Arabidopsis HPPD (SEQ ID: 53) (Arabidopsis thaliana, UniProt P93836); experiment: HPPD activity assay, wildtype Arabidopsis HPPD; conditions: for Normalized tolerance index (TI): Arabidopsis HPPD Wildtype, normalized on wildtype (Table 11); for Ki / TI (tolerance index): Arabidopsis HPPD; for Ki: Cheng-Prusoff from IC50, read-out: Ki (dissociation constant); for TI (tolerance index): not normalized
T5 construct: His6 (N); made in house; host or cells: E. coli BL21 (DE3)
T5 sequence (P93836 1-445): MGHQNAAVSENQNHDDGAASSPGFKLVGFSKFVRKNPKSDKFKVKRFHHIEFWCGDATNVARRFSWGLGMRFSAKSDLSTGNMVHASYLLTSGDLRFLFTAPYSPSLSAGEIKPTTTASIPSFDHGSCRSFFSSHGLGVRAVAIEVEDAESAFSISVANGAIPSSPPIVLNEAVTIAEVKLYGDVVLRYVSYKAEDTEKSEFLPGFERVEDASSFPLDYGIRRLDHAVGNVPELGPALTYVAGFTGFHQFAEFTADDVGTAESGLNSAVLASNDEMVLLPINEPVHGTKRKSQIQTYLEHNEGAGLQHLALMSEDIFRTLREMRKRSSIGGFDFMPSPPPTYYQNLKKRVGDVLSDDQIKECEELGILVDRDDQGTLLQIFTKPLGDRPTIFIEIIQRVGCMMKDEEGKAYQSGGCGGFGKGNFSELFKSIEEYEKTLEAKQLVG
Protocol: as §1, §5, §6, §7, §8, §9, §10, §11

[6] = tested on: Kordia HPPD; experiment: HPPD activity assay, Kordia HPPD; conditions: normalized on Hordeum HPPD
Protocol: as §1
as §2, with “volume.” for “volume. Thus, final inhibitor concentrations range from 200 μM to 2.5 nM or from 5 μM to 63 pM, respectively. After a preincubation of 30 min the reaction is started by adding 4-HPP to a final concentration of 0.1 mM.”
Activities are normalized by setting the uninhibited enzyme activity to 100%. […] values are calculated using non-linear regression. […]
as §3
Using methods which are described in the above examples or well known in the art, purified, recombinant wildtype HPPD enzymes are characterized with respect to their kinetic properties and sensitivity towards HPPD inhibiting herbicides. Apparent michaelis constants (Km) and maximal reaction velocities (Vmax) are calculated by non-linear regression with the software GraphPad Prism 5 (GraphPad Software, La Jolla, USA) using a substrate inhibition model. […]

[7] = Hordeum HPPD Wild-type, normalized on wildtype (Table 10)
[8] = Hordeum HPPD, normalized on Hordeum HPPD (Table 7)

T1 sequence (P93836 whole entry M335H/P336A/E363Q): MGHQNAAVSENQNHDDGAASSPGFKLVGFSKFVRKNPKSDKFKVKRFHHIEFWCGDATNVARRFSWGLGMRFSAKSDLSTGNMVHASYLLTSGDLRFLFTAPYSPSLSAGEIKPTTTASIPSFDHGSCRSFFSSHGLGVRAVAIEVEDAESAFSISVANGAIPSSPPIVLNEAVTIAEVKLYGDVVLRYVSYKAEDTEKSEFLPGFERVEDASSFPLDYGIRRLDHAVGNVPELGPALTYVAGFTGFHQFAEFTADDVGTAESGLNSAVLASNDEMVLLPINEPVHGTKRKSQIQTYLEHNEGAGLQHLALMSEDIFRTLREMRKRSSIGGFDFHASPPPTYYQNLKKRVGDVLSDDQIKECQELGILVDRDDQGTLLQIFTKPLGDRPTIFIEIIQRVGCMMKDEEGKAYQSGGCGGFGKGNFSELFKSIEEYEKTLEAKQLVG

Row | SMILES | Normalized tolerance index (TI) [1] | Normalized tolerance index (TI) [2, 7] | Ki ([2]; Hordeum HPPD) [nM] | Normalized tolerance index (TI) [2, 8] | TI (tolerance index) ([2]; Hordeum HPPD) | Normalized tolerance index (TI) [3] | Normalized tolerance index (TI) [4] | Normalized tolerance index (TI) [5] | Ki [5] [nM] | TI (tolerance index) [5] | Normalized tolerance index (TI) [6]
1 | CC1=NOC(c2c(Cl)ccc(C3=C(O)c4ncccc4N(CC(F)F)S3(=O)=O)c2Cl)C1 (stereo not shown) [Inhibitor 1, 3-[2,4-dichloro-3-(3-methyl-4,5-dihydroisoxazol-5-yl)phenyl]-1-(2,2-difluoroethyl)-2,2-dioxo-pyrido[3,2-c]thiazin-4-ol] | 3 | 1 | 2.7 | 1 | 1.19E−3 | 2.5 | 2.4 | 1 | 3.3 | 3.3E−3 | 7.5
2 | O=S1(=O)C(c2c(Cl)cc(Cl)nc2Cl)=C(O)c2ncccc2N1CC(F)F [Inhibitor 2, 1-(2,2-difluoroethyl)-2,2-dioxo-3-(2,4,6-trichloro-3-pyridyl)pyrido[3,2-c]thiazin-4-ol] | 1.2 | 1 | 2.6 | 1 | 1.13E−3 | 3 | 3.8 | 1 | 15 | 1.5E−2 | 12
